# From patent publication US8450308B2 (Vitae Pharmaceuticals, Inc., priority 2008, dated 2013)
# Biological target: T1, truncated human beta-secretase (residues 1-458, His6-tagged at the C-terminus) (Homo sapiens, UniProt P56817)
# T1 construct: truncated human beta-secretase (residues 1-458, His6-tagged at the C-terminus); His6 (C); made in house; host or cells: insect cells D. melanogaster S2 (baculovirus expression system (so in the source))
# Assay: BACE fluorescence quench assay
# Assay type: biochemical
# Conditions: in vitro enzyme activity, BACE fluorescence assay, pH 4.5; read-out: IC50
# T1 sequence (P56817 22-458): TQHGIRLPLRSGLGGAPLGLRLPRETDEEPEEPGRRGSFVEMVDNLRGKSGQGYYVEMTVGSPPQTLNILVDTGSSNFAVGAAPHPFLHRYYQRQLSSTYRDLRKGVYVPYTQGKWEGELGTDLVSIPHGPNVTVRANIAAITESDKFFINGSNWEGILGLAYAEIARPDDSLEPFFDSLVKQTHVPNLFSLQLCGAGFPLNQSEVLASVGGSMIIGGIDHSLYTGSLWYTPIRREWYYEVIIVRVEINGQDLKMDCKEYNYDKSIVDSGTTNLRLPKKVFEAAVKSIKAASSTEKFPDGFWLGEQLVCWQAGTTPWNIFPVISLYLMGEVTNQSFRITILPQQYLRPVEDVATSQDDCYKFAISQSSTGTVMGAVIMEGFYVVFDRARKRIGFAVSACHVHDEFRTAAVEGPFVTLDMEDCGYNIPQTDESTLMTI
row,SMILES,IC50
1,CC(=O)c1cccc(-c2ccc3c(c2)[C@]2(C[C@]4(CCCOC4)O3)N=C(N)N(C)C2=O)c1 [Compound 358],0.5 to 1 µM
2,CN1C(=O)[C@@]2(C[C@@]3(CCCOC3)Oc3ccc(-c4cc(F)cc(F)c4F)cc32)N=C1N [Compound 359],0.5 to 1 µM
3,CN1OC2(CC(C3CCOC(C)(C)C3)Oc3ccc(-c4ccc5cn[nH]c5c4)cc32)N=C1N (centres unmarked) [Compound 361],0.5 to 1 µM
4,CN1OC2(C[C@H]([C@@H]3CCOC(C)(C)C3)Oc3ccc(-c4ccc(F)c(F)c4)cc32)N=C1N (some centres unmarked) [Compound 362],0.5 to 1 µM
5,Cc1cccc(-c2ccc3c(c2)C2(CC(C4CCOC(C)(C)C4)O3)N=C(N)N(C)O2)c1F (centres unmarked) [Compound 363],0.5 to 1 µM
6,Cc1ccc(C)c(-c2ccc3c(c2)C2(CC4(CCCOC4)O3)N=C(N)N(C)C2=O)c1 (centres unmarked) [Compound 364],0.5 to 1 µM
7,CN1OC2(C[C@H]([C@H]3CCOC(C)(C)C3)Oc3ccc(-c4ccc(F)c(F)c4)cc32)N=C1N (some centres unmarked) [Compound 365],0.5 to 1 µM
8,Cc1ccc(C#N)cc1-c1ccc2c(c1)C1(CC3(CCCOC3)O2)N=C(N)N(C)C1=O (centres unmarked) [Compound 368],0.5 to 1 µM
9,CN1OC2(C[C@H](C3CCOC(C)(C)C3)Oc3ccc(-c4ccc5cn[nH]c5c4)cc32)N=C1N (some centres unmarked) [Compound 369],0.5 to 1 µM
10,CN1OC2(CC(C3CCOC(C)(C)C3)Oc3ccc(-c4csc(-n5ccnc5)n4)cc32)N=C1N (centres unmarked) [Compound 370],0.5 to 1 µM
11,CC1CC[C@]2(CO1)C[C@]1(N=C(N)N(C)O1)c1cc(-c3cc(Cl)cc(Cl)c3)ccc1O2 (some centres unmarked) [Compound 371],0.5 to 1 µM
12,CN1C(=O)C2(CC(C3CCOC(C)(C)C3)Oc3ccc(-c4cc(F)cc(F)c4)cc32)N=C1N (centres unmarked) [Compound 372],0.5 to 1 µM
13,CN1O[C@]2(C[C@]3(CCCc4ccccc43)Oc3ccc(-c4cccc(C#N)c4)cc32)N=C1N [Compound 374],1 to 5 µM
14,CN1OC2(CC3(CCC(OCc4ccccc4)CC3)Oc3ccc(-c4cccc(C#N)c4)cc32)N=C1N (centres unmarked) [Compound 375],1 to 5 µM
15,CN1C(=O)[C@@]2(C[C@]3(CCCOC3)Oc3ccc(-c4cc(CO)ccc4F)cc32)N=C1N [Compound 376],1 to 5 µM
16,CC(C)=CC(CCO)C1CC2(N=C(N)N(C)O2)c2cc(-c3cc(F)cc(C#N)c3)ccc2O1 (centres unmarked) [Compound 377],1 to 5 µM
17,CCOc1ccc(Cl)cc1-c1ccc2c(c1)[C@]1(C[C@@]3(CCCOC3)O2)N=C(N)N(C)C1=O [Compound 378],1 to 5 µM
18,CN1C(=O)[C@@]2(C[C@]3(CCCOC3)Oc3ccc(-c4cc(C#N)ccc4C(F)(F)F)cc32)N=C1N [Compound 380],1 to 5 µM
19,CN1C(=O)C2(CC3(CCCc4ccccc4C3)Oc3ccc(Br)cc32)N=C1N (centres unmarked) [Compound 381],1 to 5 µM
20,CC(C)=CC(CCO)C1CC2(N=C(N)N(C)O2)c2cc(-c3cccc(C#N)c3)ccc2O1 (centres unmarked) [Compound 382],1 to 5 µM
21,CN1OC2(CC3(CCC(Oc4ccccc4)CC3)Oc3ccc(-c4cccc(C#N)c4)cc32)N=C1N (centres unmarked) [Compound 383],1 to 5 µM
22,CN1OC2(C[C@H]([C@@H]3CCOC(C)(C)C3)Oc3ccc(-c4cc(F)ccc4F)cc32)N=C1N (some centres unmarked) [Compound 384],1 to 5 µM
23,Cc1ccc(F)cc1-c1ccc2c(c1)[C@]1(C[C@@]3(CCCOC3)O2)N=C(N)N(C)C1=O [Compound 385],1 to 5 µM

row,SMILES,IC50
1,CCOC(=O)c1cccc(-c2ccc3c(c2)[C@]2(C[C@]4(CCCOC4)O3)N=C(N)N(C)C2=O)c1 [Compound 386],1 to 5 µM
2,"CC1CCC2(CO1)CC1(N=C(N)N(C)O1)c1cc(-c3cccc(C#N)c3)ccc1O2 (centres unmarked) [Compound 387, 3-(2″H-3″-amino-2″-methyl-spiro(spiro(chroman-2,3′-[2,4,5,6-tetrahydro-6-methyl-pyran])-4,5″-[1,2,4]oxadiazole)-6-yl)benzonitrile]",1 to 5 µM
3,COC1CCC2(CC1)CC1(N=C(N)N(C)O1)c1cc(-c3cccc(C#N)c3)ccc1O2 (centres unmarked) [Compound 388],1 to 5 µM
4,Cc1cccc(-c2ccc3c(c2)[C@]2(C[C@]4(CCCOC4)O3)N=C(N)N(C)C2=O)c1C [Compound 389],1 to 5 µM
5,CN1OC2(CC3(CCN(c4ccccc4)CC3)Oc3ccc(-c4cccc(C#N)c4)cc32)N=C1N (centres unmarked) [Compound 390],1 to 5 µM
6,CC(C)=CC(CCO)C1CC2(N=C(N)N(C)O2)c2cc(-c3cc(C#N)ccc3F)ccc2O1 (centres unmarked) [Compound 391],1 to 5 µM
7,CC(C)=CC(CCO)[C@@H]1C[C@@]2(N=C(N)N(C)O2)c2cc(-c3cc(F)cc(F)c3F)ccc2O1 (some centres unmarked) [Compound 392],1 to 5 µM
8,CN1OC2(CC(C3CCOC(C)(C)C3)Oc3ccc(-c4cccc(Cl)n4)cc32)N=C1N (centres unmarked) [Compound 393],1 to 5 µM
9,CN1OC2(C[C@]3(CCCC4CCCCC43)Oc3ccc(-c4cccc(C#N)c4)cc32)N=C1N (some centres unmarked) [Compound 394],1 to 5 µM
10,CN1C(=O)C2(CC3(CCCOC3)Oc3ccc(-c4cc(CO)ccc4F)cc32)N=C1N (centres unmarked) [Compound 395],1 to 5 µM
11,CN1OC2(CC3(CCOC(C)(C)C3)Oc3ccc(-c4cccc(C#N)c4)cc32)N=C1N (centres unmarked) [Compound 396],1 to 5 µM
12,CN1C(=O)C2(CC3(CCCOC3)Oc3ccc(-c4ccsc4)cc32)N=C1N (centres unmarked) [Compound 397],1 to 5 µM
13,CN1O[C@@]2(C[C@@H]([C@H]3CCCOC3)Oc3ccc(-c4cc(F)cc(F)c4)cc32)N=C1N [Compound 398],1 to 5 µM
14,CN1OC2(N=C1N)c1ccccc1OCC2CCc1cccc(C#N)c1 (centres unmarked) [Compound 399],1 to 5 µM
15,CN1OC2(CC(C3CCOC(C)(C)C3)Oc3ccc(-c4cccc(-n5ccnc5)n4)cc32)N=C1N (centres unmarked) [Compound 400],1 to 5 µM
16,CC(C)=CC(CC(C)(C)O)C1CC2(N=C(N)N(C)O2)c2cc(-c3cccc(C#N)c3)ccc2O1 (centres unmarked) [Compound 401],1 to 5 µM
17,CC(C)=CC(CCO)C1CC2(N=C(N)N(C)O2)c2cc(-c3cc(F)cc(Cl)c3)ccc2O1 (centres unmarked) [Compound 404],1 to 5 µM
18,CSc1cccc(-c2ccc3c(c2)[C@]2(C[C@@]4(CCCOC4)O3)N=C(N)N(C)C2=O)c1 [Compound 405],1 to 5 µM
19,CN1OC2(CC(C3CCOC(C)(C)C3)Oc3ccc(-c4cccc(C#N)n4)cc32)N=C1N (centres unmarked) [Compound 406],1 to 5 µM
20,"CN1OC2(CC3(CCCOC3)Oc3ccc(C#CC4CC4)cc32)N=C1N (centres unmarked) [Compound 407, 2″-methyl-6-(cyclopropylethynyl)-2″H-spiro[spiro[chroman-2,1′-(3-oxacyclohexane)]-4,5′-[1,2,4]oxadiazol]-3″-amine]",1 to 5 µM
21,"CC(=O)N1CCC2(CC1)CC1(N=C(N)N(C)O1)c1cc(-c3cccc(C#N)c3)ccc1O2 (centres unmarked) [Compound 409, 3-(spiro[spiro(chroman-2,4′-(1-acetylpiperidine))-4,5′-(3-amino-2-methyl-2H-[1,2,4]oxadiazole)]-6-yl)benzonitrile]",1 to 5 µM
22,CN1C(=O)[C@@]2(C[C@]3(CCCOC3)Oc3ccc(-c4cccc(C#N)n4)cc32)N=C1N [Compound 410],1 to 5 µM
23,CN1C(=O)[C@@]2(C[C@]3(CCCOC3)Oc3ccc(-c4ccco4)cc32)N=C1N [Compound 411],1 to 5 µM

row,SMILES,IC50
1,CC(C)=CC(CCO)C1CC2(N=C(N)N(C)O2)c2cc(-c3cccc(Cl)c3)ccc2O1 (centres unmarked) [Compound 412],1 to 5 µM
2,Cc1ccc(C#N)cc1-c1ccc2c(c1)[C@]1(C[C@@]3(CCCOC3)O2)N=C(N)N(C)C1=O [Compound 413],1 to 5 µM
3,Cc1ccc(-c2ccc3c(c2)C2(CC4(CCCOC4)O3)N=C(N)N(C)C2=O)s1 (centres unmarked) [Compound 414],1 to 5 µM
4,CN1OC2(CC3(CCCC(c4ccccc4)C3)Oc3ccc(-c4cccc(C#N)c4)cc32)N=C1N (centres unmarked) [Compound 415],1 to 5 µM
5,CN1OC2(C[C@@]3(CCCC4CCCCC43)Oc3ccc(-c4cccc(C#N)c4)cc32)N=C1N (some centres unmarked) [Compound 416],1 to 5 µM
6,CN1C(=O)C2(CC(C3CCOC(C)(C)C3)Oc3ccc(-c4cc(F)cc(Cl)c4)cc32)N=C1N (centres unmarked) [Compound 417],1 to 5 µM
7,CC(C)=C[C@H](CCO)[C@@H]1C[C@@]2(N=C(N)N(C)O2)c2cc(-c3cc(F)cc(F)c3)ccc2O1 [Compound 419],1 to 5 µM
8,CC(C)=CC(CCO)[C@H]1C[C@@]2(N=C(N)N(C)O2)c2cc(-c3cc(F)cc(F)c3F)ccc2O1 (some centres unmarked) [Compound 420],1 to 5 µM
9,CC(C)=CC(CCO)[C@H]1C[C@@]2(N=C(N)N(C)O2)c2cc(-c3cc(F)cc(F)c3)ccc2O1 (some centres unmarked) [Compound 421],1 to 5 µM
10,CN1OC2(CC(C3COc4ccccc4C3)Oc3ccc(-c4cccc(C#N)c4)cc32)N=C1N (centres unmarked) [Compound 422],1 to 5 µM
11,CC(C)=C[C@H](CCO)[C@@H]1C[C@@]2(N=C(N)N(C)O2)c2cc(-c3cccc(C(F)(F)F)c3)ccc2O1 [Compound 423],1 to 5 µM
12,CN1C(=O)[C@@]2(C[C@]3(CCCOC3)Oc3ccc(-c4cccc(-n5cccc5)n4)cc32)N=C1N [Compound 424],1 to 5 µM
13,CC(C)=CC(CCO)C1CC2(N=C(N)N(C)O2)c2cc(-c3cc(C#N)ccc3C)ccc2O1 (centres unmarked) [Compound 425],1 to 5 µM
14,CN1C(=O)[C@@]2(C[C@]3(CCCOC3)Oc3ccc(-c4cccc(Cl)n4)cc32)N=C1N [Compound 426],1 to 5 µM
15,CC(=O)c1cccc(-c2ccc3c(c2)[C@]2(C[C@@]4(CCCOC4)O3)N=C(N)N(C)C2=O)c1 [Compound 427],1 to 5 µM
16,COc1ccc(-c2ccc3c(c2)[C@]2(C[C@]4(CCCOC4)O3)N=C(N)N(C)C2=O)cc1OC [Compound 428],1 to 5 µM
17,CCOC(=O)c1cccc(-c2ccc3c(c2)[C@]2(C[C@@]4(CCCOC4)O3)N=C(N)N(C)C2=O)c1 [Compound 429],1 to 5 µM
18,CC(C)=CC(CCO)C1CC2(N=C(N)N(C)O2)c2cc(-c3cccc(C#N)c3F)ccc2O1 (centres unmarked) [Compound 430],1 to 5 µM
19,CN1C(=O)C2(CC(C3CCOC(C)(C)C3)Oc3ccc(-c4ccc(F)c(F)c4)cc32)N=C1N (centres unmarked) [Compound 431],1 to 5 µM
20,CN1C(=O)[C@@]2(C[C@]3(CCCOC3)Oc3ccc(-c4ccc5cn[nH]c5c4)cc32)N=C1N [Compound 433],5 to 10 µM
21,CC(C)=CC(CCO)C1CC2(N=C(N)N(C)O2)c2cc(-c3cc(F)ccc3F)ccc2O1 (centres unmarked) [Compound 434],5 to 10 µM
22,CN1C(=O)[C@@]2(C[C@@]3(CCCOC3)Oc3ccc(-c4cc(CO)ccc4F)cc32)N=C1N [Compound 435],5 to 10 µM
